In PMC8429728, “TNK1 is a ubiquitin-binding and 14-3-3-regulated kinase that can be targeted to block tumor growth” (Nature Communications, 2021):
Where two headings read alike, the source gives them in different places.

Experiments:
Assay in all cases: biochemical
Set-up in all cases: Reaction Biology 371-kinase panel at Km ATP, per cent enzyme activity relative to DMSO, single dose in duplicate
SIK2 = SIK2 (Homo sapiens, UniProt Q9H0K1); details: duplicate measurements, Km ATP
Summary of the method: (§1)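 Activity of each kinase, normalised to DMSO-treated controls, served as the read-out. The inhibitor was tested at 300 nM against 371 kinases in vitro. Curves fitted by variable-slope sigmoidal dose-response, constrained to a bottom of 0, gave IC50.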

TESK2 = TESK2 (Homo sapiens, UniProt Q96S53); details: duplicate measurements, Km ATP
Summary of the method: as §1

DYRK1/DYRK1A = DYRK1/DYRK1A (Homo sapiens, UniProt Q13627); details: duplicate measurements, Km ATP
Summary of the method: as §1

MEKK6 = molecular target: T1, MEKK6 (Homo sapiens, UniProt O95382); details: duplicate measurements, Km ATP
T1 construct: gene MAP3K6
T1 sequence (O95382 whole entry): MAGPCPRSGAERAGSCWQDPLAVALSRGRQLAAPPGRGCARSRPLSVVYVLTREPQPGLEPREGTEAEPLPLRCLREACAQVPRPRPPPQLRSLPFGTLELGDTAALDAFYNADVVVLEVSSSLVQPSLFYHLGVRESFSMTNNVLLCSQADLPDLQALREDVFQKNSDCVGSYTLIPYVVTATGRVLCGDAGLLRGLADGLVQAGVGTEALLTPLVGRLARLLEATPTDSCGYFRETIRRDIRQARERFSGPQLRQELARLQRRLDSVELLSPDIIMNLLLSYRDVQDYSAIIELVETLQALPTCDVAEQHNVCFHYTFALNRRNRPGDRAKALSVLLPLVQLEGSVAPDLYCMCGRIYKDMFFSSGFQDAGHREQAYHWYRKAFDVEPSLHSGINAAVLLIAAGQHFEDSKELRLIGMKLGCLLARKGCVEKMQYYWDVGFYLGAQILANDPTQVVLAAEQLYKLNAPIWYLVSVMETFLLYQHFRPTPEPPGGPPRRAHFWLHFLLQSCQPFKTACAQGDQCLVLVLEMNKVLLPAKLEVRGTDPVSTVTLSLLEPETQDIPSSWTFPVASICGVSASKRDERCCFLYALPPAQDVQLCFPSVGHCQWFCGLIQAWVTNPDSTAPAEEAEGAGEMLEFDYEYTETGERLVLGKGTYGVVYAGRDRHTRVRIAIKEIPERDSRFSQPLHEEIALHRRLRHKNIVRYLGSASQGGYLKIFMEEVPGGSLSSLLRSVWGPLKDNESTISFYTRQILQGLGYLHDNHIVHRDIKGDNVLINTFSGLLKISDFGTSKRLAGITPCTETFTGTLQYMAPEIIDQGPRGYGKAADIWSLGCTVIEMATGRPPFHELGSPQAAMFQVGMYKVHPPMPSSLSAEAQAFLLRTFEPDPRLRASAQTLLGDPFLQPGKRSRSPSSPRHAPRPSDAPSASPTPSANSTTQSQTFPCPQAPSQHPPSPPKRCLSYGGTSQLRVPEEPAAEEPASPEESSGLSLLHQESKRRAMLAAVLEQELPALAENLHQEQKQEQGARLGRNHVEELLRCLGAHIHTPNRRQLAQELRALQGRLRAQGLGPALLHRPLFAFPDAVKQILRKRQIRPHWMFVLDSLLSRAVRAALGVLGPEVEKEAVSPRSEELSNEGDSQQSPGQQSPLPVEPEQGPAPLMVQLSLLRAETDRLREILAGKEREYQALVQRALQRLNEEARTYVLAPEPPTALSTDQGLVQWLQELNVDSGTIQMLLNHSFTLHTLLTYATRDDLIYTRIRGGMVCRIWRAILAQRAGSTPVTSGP
Summary of the method: as §1

ALK2/ACVR1 = ALK2/ACVR1 (Homo sapiens, UniProt Q04771); details: duplicate measurements, Km ATP; read-out: % Enzyme Activity (relative to DMSO controls) / TP-0005801 (0.3µM) / Data 1
Summary of the method: as §1

CK1a1 = molecular target: T2, CK1a1 (Homo sapiens, UniProt P48729); details: duplicate measurements, Km ATP
T2 construct: gene CSNK1A1
T2 sequence (P48729 whole entry): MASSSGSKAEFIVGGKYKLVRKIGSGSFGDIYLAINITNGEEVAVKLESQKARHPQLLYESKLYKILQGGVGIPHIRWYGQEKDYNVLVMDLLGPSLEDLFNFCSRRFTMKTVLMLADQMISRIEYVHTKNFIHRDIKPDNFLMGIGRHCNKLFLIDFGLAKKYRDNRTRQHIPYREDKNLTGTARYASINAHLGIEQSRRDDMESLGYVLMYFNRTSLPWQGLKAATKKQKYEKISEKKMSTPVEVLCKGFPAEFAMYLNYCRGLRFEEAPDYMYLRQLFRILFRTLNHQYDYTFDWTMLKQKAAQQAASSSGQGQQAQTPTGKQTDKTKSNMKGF
Summary of the method: as §1

RIPK4 = RIPK4 (Homo sapiens, UniProt P57078); details: duplicate measurements, Km ATP
Summary of the method: as §1

GLK/MAP4K3 = GLK/MAP4K3 (Homo sapiens, UniProt Q8IVH8); details: duplicate measurements, Km ATP
Summary of the method: as §1

ALK1/ACVRL1 = ALK1/ACVRL1 (Homo sapiens, UniProt P37023); details: duplicate measurements, Km ATP
Summary of the method: as §1

TEC = TEC (Homo sapiens, UniProt P42680); details: duplicate measurements, Km ATP
Summary of the method: as §1

HIPK4 = HIPK4 (Homo sapiens, UniProt Q8NE63); details: duplicate measurements, Km ATP
Summary of the method: as §1

PDGFRb = PDGFRb (Homo sapiens, UniProt P09619); details: duplicate measurements, Km ATP
Chain of PDGFRb (P09619 whole entry): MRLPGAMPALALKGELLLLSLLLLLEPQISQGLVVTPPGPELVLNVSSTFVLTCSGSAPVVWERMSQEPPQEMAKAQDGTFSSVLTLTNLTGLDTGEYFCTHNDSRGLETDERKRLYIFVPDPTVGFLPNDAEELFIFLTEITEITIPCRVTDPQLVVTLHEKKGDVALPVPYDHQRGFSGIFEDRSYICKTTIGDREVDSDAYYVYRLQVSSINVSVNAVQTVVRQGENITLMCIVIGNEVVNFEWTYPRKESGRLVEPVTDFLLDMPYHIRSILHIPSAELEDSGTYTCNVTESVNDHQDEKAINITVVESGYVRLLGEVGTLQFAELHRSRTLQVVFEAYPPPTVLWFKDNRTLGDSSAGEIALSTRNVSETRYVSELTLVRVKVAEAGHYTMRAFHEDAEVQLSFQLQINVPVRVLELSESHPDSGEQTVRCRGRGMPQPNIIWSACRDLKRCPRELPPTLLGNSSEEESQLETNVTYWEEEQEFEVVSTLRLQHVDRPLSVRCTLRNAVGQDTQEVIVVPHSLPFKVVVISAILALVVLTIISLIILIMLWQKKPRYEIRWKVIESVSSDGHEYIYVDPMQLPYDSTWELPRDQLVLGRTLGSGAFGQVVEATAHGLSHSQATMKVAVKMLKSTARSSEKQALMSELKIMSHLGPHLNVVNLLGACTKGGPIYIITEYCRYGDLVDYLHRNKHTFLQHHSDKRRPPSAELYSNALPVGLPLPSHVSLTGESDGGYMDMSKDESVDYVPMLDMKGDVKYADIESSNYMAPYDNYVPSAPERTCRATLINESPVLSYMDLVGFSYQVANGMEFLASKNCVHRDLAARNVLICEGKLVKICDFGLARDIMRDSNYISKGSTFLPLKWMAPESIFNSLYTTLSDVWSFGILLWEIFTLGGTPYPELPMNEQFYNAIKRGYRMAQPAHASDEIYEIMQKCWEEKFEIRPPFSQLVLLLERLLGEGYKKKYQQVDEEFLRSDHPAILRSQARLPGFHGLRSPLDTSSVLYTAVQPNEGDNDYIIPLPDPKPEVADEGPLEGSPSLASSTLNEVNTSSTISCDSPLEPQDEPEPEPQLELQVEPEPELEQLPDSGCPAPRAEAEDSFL
Summary of the method: as §1

MEK2 = molecular target: T3, MEK2 (Homo sapiens, UniProt P36507); details: duplicate measurements, Km ATP
T3 construct: gene MAP2K2
Summary of the method: as §1

EPHA7 = EPHA7 (Homo sapiens, UniProt Q15375); details: duplicate measurements, Km ATP
Summary of the method: as §1

ALK5/TGFBR1 = ALK5/TGFBR1 (Homo sapiens, UniProt P36897); details: duplicate measurements, Km ATP
Chain of ALK5/TGFBR1 (P36897 whole entry): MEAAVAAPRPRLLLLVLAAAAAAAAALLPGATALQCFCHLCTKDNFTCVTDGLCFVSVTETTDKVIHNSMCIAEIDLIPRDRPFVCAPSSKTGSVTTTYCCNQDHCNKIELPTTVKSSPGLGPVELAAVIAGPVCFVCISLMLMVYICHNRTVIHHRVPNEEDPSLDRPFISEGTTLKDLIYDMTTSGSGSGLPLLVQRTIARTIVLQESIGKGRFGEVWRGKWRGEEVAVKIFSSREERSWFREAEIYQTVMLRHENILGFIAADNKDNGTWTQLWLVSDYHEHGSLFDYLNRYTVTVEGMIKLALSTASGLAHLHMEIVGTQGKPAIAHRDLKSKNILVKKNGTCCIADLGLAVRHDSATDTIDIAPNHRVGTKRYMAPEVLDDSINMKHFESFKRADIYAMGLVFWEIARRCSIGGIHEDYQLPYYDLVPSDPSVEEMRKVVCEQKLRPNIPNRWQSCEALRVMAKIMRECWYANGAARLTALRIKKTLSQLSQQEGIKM
Summary of the method: as §1

CHK2 = molecular target: T4, CHK2 (Homo sapiens, UniProt O96017); details: duplicate measurements, Km ATP
T4 construct: gene CHEK2
T4 sequence (O96017 whole entry): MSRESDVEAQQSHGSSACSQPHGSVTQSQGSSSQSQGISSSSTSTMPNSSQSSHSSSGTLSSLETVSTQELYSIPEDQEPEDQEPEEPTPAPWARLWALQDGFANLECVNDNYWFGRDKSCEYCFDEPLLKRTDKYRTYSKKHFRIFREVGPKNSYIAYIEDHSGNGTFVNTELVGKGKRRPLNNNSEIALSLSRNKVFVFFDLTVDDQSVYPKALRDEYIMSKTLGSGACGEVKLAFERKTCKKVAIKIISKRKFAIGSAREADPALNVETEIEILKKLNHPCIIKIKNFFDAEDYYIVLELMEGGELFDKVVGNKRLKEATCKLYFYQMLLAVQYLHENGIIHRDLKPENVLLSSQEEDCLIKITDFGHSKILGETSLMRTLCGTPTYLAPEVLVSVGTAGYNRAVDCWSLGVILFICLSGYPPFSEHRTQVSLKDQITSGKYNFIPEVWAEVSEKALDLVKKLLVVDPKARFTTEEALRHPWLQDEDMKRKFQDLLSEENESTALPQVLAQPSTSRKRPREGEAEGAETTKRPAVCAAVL
Summary of the method: as §1

FGFR2 = FGFR2 (Homo sapiens, UniProt P21802); details: duplicate measurements, Km ATP
Summary of the method: as §1

ERK2/MAPK1 = ERK2/MAPK1 (Homo sapiens, UniProt P28482); details: duplicate measurements, Km ATP
Chain of ERK2/MAPK1 (P28482 whole entry): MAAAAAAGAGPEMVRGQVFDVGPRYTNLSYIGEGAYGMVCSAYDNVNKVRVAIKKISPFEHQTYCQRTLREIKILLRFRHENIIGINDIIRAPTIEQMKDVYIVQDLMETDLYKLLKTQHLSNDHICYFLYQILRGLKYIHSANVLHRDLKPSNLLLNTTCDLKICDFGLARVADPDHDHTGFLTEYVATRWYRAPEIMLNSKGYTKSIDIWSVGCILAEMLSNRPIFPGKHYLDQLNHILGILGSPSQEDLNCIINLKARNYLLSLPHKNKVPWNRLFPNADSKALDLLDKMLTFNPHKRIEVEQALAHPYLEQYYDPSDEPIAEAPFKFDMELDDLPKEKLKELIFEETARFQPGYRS
Summary of the method: as §1

CAMK2d = CAMK2d (Homo sapiens, UniProt Q13557); details: duplicate measurements, Km ATP
Summary of the method: as §1

MAK = MAK (Homo sapiens, UniProt P20794); details: duplicate measurements, Km ATP
Summary of the method: as §1

[1] = read-out: % Enzyme Activity (relative to DMSO controls) / TP-0005801 (0.3µM) / Data 1
[2] = read-out: % Enzyme Activity (relative to DMSO controls) / TP-0005801 (0.3µM) / Data 2

Chain of SIK2 (Q9H0K1 whole entry): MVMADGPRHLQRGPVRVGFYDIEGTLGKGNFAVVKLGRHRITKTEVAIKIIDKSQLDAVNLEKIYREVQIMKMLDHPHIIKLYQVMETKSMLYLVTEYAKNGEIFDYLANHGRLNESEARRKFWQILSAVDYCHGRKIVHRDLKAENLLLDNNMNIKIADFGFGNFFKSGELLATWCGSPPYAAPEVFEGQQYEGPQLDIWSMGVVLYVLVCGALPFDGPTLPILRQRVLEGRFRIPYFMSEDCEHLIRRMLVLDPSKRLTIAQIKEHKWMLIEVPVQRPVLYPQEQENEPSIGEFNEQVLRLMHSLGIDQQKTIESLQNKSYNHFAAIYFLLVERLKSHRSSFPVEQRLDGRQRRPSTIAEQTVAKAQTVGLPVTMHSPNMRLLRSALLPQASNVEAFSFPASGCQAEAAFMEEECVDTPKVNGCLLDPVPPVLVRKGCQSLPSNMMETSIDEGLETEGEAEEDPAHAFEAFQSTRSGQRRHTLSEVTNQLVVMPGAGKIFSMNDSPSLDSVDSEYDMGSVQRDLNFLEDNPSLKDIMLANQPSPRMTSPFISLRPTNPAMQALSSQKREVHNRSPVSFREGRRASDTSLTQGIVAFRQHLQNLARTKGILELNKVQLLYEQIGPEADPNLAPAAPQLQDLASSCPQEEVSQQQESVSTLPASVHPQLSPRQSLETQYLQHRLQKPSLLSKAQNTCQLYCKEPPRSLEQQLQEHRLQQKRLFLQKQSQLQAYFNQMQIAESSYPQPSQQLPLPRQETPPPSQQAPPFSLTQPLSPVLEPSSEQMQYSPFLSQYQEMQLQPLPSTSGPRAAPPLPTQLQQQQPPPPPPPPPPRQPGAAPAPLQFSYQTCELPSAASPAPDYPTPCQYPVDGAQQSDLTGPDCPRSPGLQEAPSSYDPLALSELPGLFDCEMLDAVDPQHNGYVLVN

COc1cc(N2CCN(C)CC2)c(C)cc1Nc1ncc(Br)c(Nc2cccnc2N(C)C)n1 [TP-5801]
remaining activity at 0.3 µM (SIK2; [1]): 79.4% | remaining activity at 0.3 µM (SIK2; [2]): 78.3% | remaining activity at 0.3 µM (TESK2; [1]): 92.8% | remaining activity at 0.3 µM (TESK2; [2]): 90.1% | remaining activity at 0.3 µM (DYRK1/DYRK1A; [1]): 86.5% | remaining activity at 0.3 µM (DYRK1/DYRK1A; [2]): 85.9% | remaining activity at 0.3 µM (MEKK6; [1]): 95.3% | remaining activity at 0.3 µM (MEKK6; [2]): 95.2% | remaining activity at 0.3 µM (ALK2/ACVR1): 90.6% | remaining activity at 0.3 µM (CK1a1; [1]): 94.3% | remaining activity at 0.3 µM (CK1a1; [2]): 93.1% | remaining activity at 0.3 µM (RIPK4; [1]): 117% | remaining activity at 0.3 µM (RIPK4; [2]): 108% | remaining activity at 0.3 µM (GLK/MAP4K3; [1]): 35% | remaining activity at 0.3 µM (GLK/MAP4K3; [2]): 34.3% | remaining activity at 0.3 µM (ALK1/ACVRL1; [1]): 88.3% | remaining activity at 0.3 µM (ALK1/ACVRL1; [2]): 83.6% | remaining activity at 0.3 µM (TEC; [1]): 93.4% | remaining activity at 0.3 µM (TEC; [2]): 92.2% | remaining activity at 0.3 µM (HIPK4; [1]): 79.6% | remaining activity at 0.3 µM (HIPK4; [2]): 78.6% | remaining activity at 0.3 µM (PDGFRb; [1]): 64.4% | remaining activity at 0.3 µM (PDGFRb; [2]): 64% | remaining activity at 0.3 µM (MEK2; [1]): 87.6% | remaining activity at 0.3 µM (MEK2; [2]): 87.4% | remaining activity at 0.3 µM (EPHA7; [1]): 95.2% | remaining activity at 0.3 µM (EPHA7; [2]): 94% | remaining activity at 0.3 µM (ALK5/TGFBR1; [1]): 88.1% | remaining activity at 0.3 µM (ALK5/TGFBR1; [2]): 88% | remaining activity at 0.3 µM (CHK2; [1]): 103% | remaining activity at 0.3 µM (CHK2; [2]): 102% | remaining activity at 0.3 µM (FGFR2; [1]): 89.2% | remaining activity at 0.3 µM (FGFR2; [2]): 87.3% | remaining activity at 0.3 µM (ERK2/MAPK1; [1]): 87.1% | remaining activity at 0.3 µM (ERK2/MAPK1; [2]): 86.1% | remaining activity at 0.3 µM (CAMK2d; [1]): 4.74% | remaining activity at 0.3 µM (CAMK2d; [2]): 4.45% | remaining activity at 0.3 µM (MAK; [1]): 98.4% | remaining activity at 0.3 µM (MAK; [2]): 94.1%
